What was measured:
Format in all cases: in vivo
Candida albicans T.A. = test: Protective effect at a single dose of 1.04 μmol/kg against experimental Candida albicans TA infection in mice (Experiment 3); settings: n = 5 mice; for Mean survival day of the mice which died, i.v. / No. of survivors, i.v.: 1.04 μmol/kg i.v.; for Mean survival day of the mice which died, i.v. / Mean survival day of the mice which died, p.o.: mice which had died up to 7 days after infection; for No. of survivors, i.v. / No. of survivors, p.o.: survivors on day 7 after infection; for Mean survival day of the mice which died, p.o. / No. of survivors, p.o.: 1.04 μmol/kg p.o.
Procedure: Method: Five-week-old Crj:CDF1 female mice were infected intravenously with minimum lethal dose of Candida albicans T.A. The test compounds were dissolved in 5% glucose solution and were administered intravenously (i.v.) or orally (p.o.) to the mice at a dose of 1.04 μmol/kg immediately after infection. Protective effect of each compound were expressed as the number of survivors on day 7 after infection and the mean survival days of the mice which had died up to 7 days after infection.
The protective effect of the reference compound shown in figure (V) is included in Table 7. The reference compound was suspended in 0.5% sodium carboxymethyl cellulose and was administered orally to the mice at a dose of 1.04 μmol/kg immediately after infection.

Candida albicans TA [1] = test: Protective effect against experimental Candida albicans TA infection in mice, oral administration (Experiment 2); settings: Crj:CDF1 female mice, i.v. infection, compound in 5% glucose given orally immediately after infection; Reed and Muench from survival rates on day 7
Procedure: (§1) Method: Five-week-old Crj:CDF1 female mice were infected intravenously with minimum lethal dose of Candida albicans TA. The test compounds were dissolved in 5% glucose solution and were administered orally to the mice immediately after infection. Protective effects of the compounds were expressed as 50% effective dose (ED50) calculated using the method of Reed and Muench from survival rates on day 7 after infection.

Candida albicans TA [2] = test: Protective effect against experimental Candida albicans TA infection in mice, intravenous administration (Experiment 1); settings: Crj:CDF1 female mice, compound in 5% glucose given intravenously immediately after infection, Reed and Muench from survival rates on day 7
Procedure: as §1, with “intravenously” for “orally”

1-[(2R,3R)-2-(2,4-difluorophenyl)-2-hydroxy-3-[2-oxo-3-[4-(1H-tetrazol-1-yl)phenyl]-1-imidazolidinyl]butyl]-4-(isopropoxycarbonyloxy)methyl-1H-1,2,4-triazolium chloride [Compound 18]
Mean survival day of the mice which died, i.v. (Candida albicans T.A.): 5.5 days
No. of survivors, i.v. (Candida albicans T.A.): 3
Mean survival day of the mice which died, p.o. (Candida albicans T.A.): 4.5 days
No. of survivors, p.o. (Candida albicans T.A.): 3

CC(=O)OC[n+]1cnn(C[C@](O)(c2ccc(F)cc2F)[C@@H](C)N2CCN(c3ccc(-n4cnnn4)cc3)C2=O)c1.[Cl-] [Compound 12, 4-acetoxymethyl-1-[(2R,3R)-2-(2,4-difluorophenyl)-2-hydroxy-3-[2-oxo-3-[4-(1H-tetrazol-1-yl)phenyl]-1-imidazolidinyl]butyl]-1H-1,2,4-triazolium chloride]
Mean survival day of the mice which died, i.v. (Candida albicans T.A.): 4.5 days
No. of survivors, i.v. (Candida albicans T.A.): 3
Mean survival day of the mice which died, p.o. (Candida albicans T.A.): 5.0 days
No. of survivors, p.o. (Candida albicans T.A.): 4

CC(N1CCN(c2ccc(-n3cnnn3)cc2)C1=O)C(O)(Cn1cncn1)c1ccc(F)cc1F (stereo not shown) [Reference compound (V), reference compound]
Mean survival day of the mice which died, p.o. (Candida albicans T.A.): 4.3 days
No. of survivors, p.o. (Candida albicans T.A.): 2

C[C@@H](N1CCN(c2ccc(-n3cnnn3)cc2)C1=O)[C@](O)(C[n+]1cn(COC(=O)C(C)(C)C)cn1)c1ccc(F)cc1F.[Cl-] [Compound 2, 1-[(2R,3R)-2-(2,4-difluorophenyl)-2-hydroxy-3-[2-oxo-3-[4-(1H-tetrazol-1-yl)phenyl]-1-imidazolidinyl]butyl]-4-[(2,2-dimethylpropanoyloxy)methyl]-1,2,4-triazolium chloride]
ED50 p.o. (Candida albicans TA [1]): 1.8 µmol/kg
ED50 i.v. (Candida albicans TA [2]): 1.5 µmol/kg

CCOC(=O)OC[n+]1cnn(C[C@](O)(c2ccc(F)cc2F)[C@@H](C)N2CCN(c3ccc(-n4cnnn4)cc3)C2=O)c1.[Cl-] [Compound 16, 1-[(2R,3R)-2-(2,4-difluorophenyl)-2-hydroxy-3-[2-oxo-3-[4-(1H-tetrazol-1-yl)phenyl]-1-imidazolidinyl]butyl]-4-ethoxycarbonyloxymethyl-1H-1,2,4-triazolium chloride]
Mean survival day of the mice which died, i.v. (Candida albicans T.A.): 6.0 days
No. of survivors, i.v. (Candida albicans T.A.): 4
No. of survivors, p.o. (Candida albicans T.A.): 5

1-[(2R,3R)-2-(2,4-difluorophenyl)-2-hydroxy-3-[2-oxo-3-[4-(1H-1,2,3-triazol-1-yl)phenyl]-1-imidazolidinyl]butyl]-4-[(2,2-dimethylpropanoyloxy)methyl]-1H-1,2,4-triazolium chloride [Compound 1]
ED50 p.o. (Candida albicans TA [1]): 2.9 µmol/kg
ED50 i.v. (Candida albicans TA [2]): 2.3 µmol/kg

CC(=O)OC[n+]1cnn(C[C@](O)(c2ccc(F)cc2F)[C@@H](C)N2CCN(c3ccc(-n4cnnn4)cc3)C2=O)c1.[Br-] [Compound 11, 4-acetoxymethyl-1-[(2R,3R)-2-(2,4-difluorophenyl)-2-hydroxy-3-[2-oxo-3-[4-(1H-tetrazol-1-yl)phenyl]-1-imidazolidinyl]butyl]-1H-1,2,4-triazolium bromide]
Mean survival day of the mice which died, i.v. (Candida albicans T.A.): 4.0 days
No. of survivors, i.v. (Candida albicans T.A.): 2
Mean survival day of the mice which died, p.o. (Candida albicans T.A.): 6.0 days
No. of survivors, p.o. (Candida albicans T.A.): 3

CCC(=O)OC[n+]1cnn(C[C@](O)(c2ccc(F)cc2F)[C@@H](C)N2CCN(c3ccc(-n4cnnn4)cc3)C2=O)c1.[Cl-] [Compound 14, 1-[(2R,3R)-2-(2,4-difluorophenyl)-2-hydroxy-3-[2-oxo-3-[4-(1H-tetrazol-1-yl)phenyl]-1-imidazolidinyl]butyl]-4-propanoyloxymethyl-1H-1,2,4-triazolium chloride]
Mean survival day of the mice which died, i.v. (Candida albicans T.A.): 4.5 days
No. of survivors, i.v. (Candida albicans T.A.): 1
Mean survival day of the mice which died, p.o. (Candida albicans T.A.): 6.0 days
No. of survivors, p.o. (Candida albicans T.A.): 3
